According to PMC7613998, “Development of selective inhibitors of phosphatidylinositol 3-kinase C2α” (Nature Chemical Biology, 2022):

Assays:
Assay in all cases: biochemical
Design in all cases: SelectScreen LanthaScreen kinase binding assay, per cent tracer displacement, mean of two points
Settings in all cases: tracer displacement
KIT V559D T670I = KIT V559D T670I (Homo sapiens, UniProt P10721, T670I/V559D)
ADCK3 = biological target: T1, ADCK3 (Homo sapiens, UniProt Q8NI60)
T1 construct: gene COQ8A

MKNK2 (MNK2) = MKNK2 (MNK2) (Homo sapiens, UniProt Q9HBH9)
MKNK2 (MNK2), sequence (Q9HBH9 whole entry): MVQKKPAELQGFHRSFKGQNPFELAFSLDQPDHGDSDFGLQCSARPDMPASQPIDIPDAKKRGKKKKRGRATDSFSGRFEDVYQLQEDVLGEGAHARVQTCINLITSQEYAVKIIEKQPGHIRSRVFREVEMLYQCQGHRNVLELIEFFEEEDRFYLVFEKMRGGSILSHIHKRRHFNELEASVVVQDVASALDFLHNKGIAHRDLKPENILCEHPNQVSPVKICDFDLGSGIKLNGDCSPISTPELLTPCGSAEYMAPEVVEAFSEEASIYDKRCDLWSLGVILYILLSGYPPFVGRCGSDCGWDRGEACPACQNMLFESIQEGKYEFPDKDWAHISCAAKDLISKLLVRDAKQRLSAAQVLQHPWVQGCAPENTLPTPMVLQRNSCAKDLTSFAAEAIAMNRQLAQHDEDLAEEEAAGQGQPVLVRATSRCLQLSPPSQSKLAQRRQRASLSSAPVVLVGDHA

TGFBR1 (ALK5) = biological target: T2, TGFBR1 (ALK5) (Homo sapiens, UniProt P36897)
T2 sequence (P36897 1-503): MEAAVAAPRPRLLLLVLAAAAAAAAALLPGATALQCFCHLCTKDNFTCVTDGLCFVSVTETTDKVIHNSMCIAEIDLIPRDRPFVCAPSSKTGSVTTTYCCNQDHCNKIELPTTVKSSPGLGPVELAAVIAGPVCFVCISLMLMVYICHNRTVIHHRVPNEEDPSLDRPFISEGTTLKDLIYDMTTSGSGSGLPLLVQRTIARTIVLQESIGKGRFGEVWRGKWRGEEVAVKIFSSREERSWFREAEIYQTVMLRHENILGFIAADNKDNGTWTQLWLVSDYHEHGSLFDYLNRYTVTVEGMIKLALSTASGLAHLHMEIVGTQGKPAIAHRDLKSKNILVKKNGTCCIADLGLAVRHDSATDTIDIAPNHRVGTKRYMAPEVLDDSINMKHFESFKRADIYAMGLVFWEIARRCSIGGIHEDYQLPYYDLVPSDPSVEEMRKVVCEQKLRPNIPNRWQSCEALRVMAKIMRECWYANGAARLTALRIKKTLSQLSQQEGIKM

RAF1 (cRAF) Y340D Y341D = RAF1 (cRAF) Y340D Y341D (Homo sapiens, UniProt P04049, Y340D/Y341D)
RAF1 (cRAF) Y340D Y341D, sequence (P04049 whole entry Y340D/Y341D): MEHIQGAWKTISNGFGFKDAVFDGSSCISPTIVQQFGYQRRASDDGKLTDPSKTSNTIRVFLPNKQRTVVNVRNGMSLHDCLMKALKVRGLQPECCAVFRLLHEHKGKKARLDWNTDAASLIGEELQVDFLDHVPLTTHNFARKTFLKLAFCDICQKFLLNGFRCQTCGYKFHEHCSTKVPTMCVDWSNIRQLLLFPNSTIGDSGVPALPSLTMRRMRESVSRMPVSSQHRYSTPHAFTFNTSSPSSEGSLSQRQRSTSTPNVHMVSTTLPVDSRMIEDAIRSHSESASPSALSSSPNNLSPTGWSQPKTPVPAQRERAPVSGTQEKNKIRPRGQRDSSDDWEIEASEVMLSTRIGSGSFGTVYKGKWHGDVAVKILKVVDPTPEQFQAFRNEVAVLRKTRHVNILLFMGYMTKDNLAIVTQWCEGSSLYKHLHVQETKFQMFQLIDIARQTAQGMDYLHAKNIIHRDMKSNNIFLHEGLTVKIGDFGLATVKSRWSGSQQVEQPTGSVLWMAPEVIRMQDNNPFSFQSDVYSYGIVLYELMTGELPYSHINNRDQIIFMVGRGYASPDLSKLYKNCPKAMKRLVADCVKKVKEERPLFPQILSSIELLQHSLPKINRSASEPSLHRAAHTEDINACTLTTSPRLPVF

MAP2K1 (MEK1) = MAP2K1 (MEK1) (Homo sapiens, UniProt Q02750)
MAP2K1 (MEK1), sequence (Q02750 whole entry): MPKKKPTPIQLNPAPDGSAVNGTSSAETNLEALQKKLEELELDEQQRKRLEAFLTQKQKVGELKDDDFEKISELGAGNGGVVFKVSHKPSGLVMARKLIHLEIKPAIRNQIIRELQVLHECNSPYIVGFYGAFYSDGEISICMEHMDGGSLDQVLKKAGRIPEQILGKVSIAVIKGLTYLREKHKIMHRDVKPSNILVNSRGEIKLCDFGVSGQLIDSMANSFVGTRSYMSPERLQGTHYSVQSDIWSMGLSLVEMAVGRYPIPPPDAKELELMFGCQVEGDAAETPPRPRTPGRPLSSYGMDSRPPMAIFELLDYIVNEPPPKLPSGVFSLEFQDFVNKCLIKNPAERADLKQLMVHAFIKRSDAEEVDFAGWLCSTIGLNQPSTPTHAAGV

CDK2/cyclin O = CDK2/cyclin O (Homo sapiens, UniProt P24941)
TNIK = TNIK (Homo sapiens, UniProt Q9UKE5)
TNIK, sequence (Q9UKE5 whole entry): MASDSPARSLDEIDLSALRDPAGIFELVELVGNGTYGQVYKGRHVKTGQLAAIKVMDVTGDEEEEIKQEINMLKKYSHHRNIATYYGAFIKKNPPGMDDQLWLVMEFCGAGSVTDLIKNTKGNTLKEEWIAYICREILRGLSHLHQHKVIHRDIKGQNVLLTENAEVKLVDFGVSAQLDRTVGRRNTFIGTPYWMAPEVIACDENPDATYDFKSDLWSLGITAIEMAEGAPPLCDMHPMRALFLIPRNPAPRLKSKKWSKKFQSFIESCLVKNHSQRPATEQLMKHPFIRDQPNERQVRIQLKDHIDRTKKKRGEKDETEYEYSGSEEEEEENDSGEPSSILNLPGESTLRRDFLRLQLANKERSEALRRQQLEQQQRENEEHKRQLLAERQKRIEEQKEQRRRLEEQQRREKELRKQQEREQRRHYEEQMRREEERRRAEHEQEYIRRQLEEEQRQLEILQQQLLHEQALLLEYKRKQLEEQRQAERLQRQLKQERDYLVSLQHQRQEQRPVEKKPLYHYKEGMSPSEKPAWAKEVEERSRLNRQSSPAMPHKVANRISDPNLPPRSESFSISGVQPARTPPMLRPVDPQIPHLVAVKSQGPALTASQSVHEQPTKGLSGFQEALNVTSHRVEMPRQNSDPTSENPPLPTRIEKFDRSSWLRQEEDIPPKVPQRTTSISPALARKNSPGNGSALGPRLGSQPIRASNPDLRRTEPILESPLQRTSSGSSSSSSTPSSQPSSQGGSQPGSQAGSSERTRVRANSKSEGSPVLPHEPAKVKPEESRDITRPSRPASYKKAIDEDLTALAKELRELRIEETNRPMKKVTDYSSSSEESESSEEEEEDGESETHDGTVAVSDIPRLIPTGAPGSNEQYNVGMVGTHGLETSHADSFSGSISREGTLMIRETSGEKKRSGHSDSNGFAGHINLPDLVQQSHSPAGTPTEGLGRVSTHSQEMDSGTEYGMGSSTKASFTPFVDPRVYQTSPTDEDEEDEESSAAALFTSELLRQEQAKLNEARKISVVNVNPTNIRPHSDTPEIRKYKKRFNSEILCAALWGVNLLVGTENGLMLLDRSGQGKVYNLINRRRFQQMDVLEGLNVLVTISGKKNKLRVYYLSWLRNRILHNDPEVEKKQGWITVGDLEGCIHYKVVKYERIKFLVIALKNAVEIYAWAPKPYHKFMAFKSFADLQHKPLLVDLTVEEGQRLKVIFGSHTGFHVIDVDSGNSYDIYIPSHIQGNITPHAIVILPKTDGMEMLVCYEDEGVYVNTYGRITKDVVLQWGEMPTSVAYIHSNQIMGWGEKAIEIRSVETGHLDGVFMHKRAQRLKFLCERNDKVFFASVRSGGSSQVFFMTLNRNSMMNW

CDK9/cyclin K = CDK9/cyclin K (Homo sapiens, UniProt P50750)
CDK9/cyclin K, sequence (P50750 whole entry): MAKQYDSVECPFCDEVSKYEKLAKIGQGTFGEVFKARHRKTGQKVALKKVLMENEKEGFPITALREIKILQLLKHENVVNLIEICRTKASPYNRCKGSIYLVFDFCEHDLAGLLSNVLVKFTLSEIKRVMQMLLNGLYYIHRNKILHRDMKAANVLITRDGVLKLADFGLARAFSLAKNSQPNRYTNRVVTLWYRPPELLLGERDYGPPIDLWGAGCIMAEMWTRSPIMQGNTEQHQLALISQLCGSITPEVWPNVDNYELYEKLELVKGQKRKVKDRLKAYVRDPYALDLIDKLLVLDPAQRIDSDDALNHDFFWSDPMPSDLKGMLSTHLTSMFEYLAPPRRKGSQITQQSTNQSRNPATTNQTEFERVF
CDK9/cyclin K, sequence (O75909 whole entry partner): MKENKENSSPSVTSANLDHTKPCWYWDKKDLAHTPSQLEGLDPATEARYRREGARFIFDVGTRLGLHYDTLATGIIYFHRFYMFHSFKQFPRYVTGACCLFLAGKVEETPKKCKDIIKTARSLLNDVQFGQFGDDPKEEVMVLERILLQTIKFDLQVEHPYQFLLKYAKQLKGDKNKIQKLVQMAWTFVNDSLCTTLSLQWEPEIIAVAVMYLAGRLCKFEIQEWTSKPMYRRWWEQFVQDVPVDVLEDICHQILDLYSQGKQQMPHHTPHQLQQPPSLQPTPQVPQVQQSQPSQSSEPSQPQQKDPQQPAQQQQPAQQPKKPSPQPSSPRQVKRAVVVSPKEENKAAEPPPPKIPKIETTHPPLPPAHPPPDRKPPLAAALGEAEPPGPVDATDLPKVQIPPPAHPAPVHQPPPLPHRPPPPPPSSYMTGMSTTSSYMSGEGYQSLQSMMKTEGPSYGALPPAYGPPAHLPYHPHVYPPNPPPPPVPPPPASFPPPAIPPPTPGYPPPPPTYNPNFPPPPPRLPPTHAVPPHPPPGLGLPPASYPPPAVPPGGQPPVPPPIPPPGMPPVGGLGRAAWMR

BRAF = BRAF (Homo sapiens, UniProt P15056)
CDK16 (PCTK1)/cyclin Y = CDK16 (PCTK1)/cyclin Y (Homo sapiens, UniProt Q00536)
STK32C (YANK3) = STK32C (YANK3) (Homo sapiens, UniProt Q86UX6)
STK32C (YANK3), sequence (Q86UX6 whole entry): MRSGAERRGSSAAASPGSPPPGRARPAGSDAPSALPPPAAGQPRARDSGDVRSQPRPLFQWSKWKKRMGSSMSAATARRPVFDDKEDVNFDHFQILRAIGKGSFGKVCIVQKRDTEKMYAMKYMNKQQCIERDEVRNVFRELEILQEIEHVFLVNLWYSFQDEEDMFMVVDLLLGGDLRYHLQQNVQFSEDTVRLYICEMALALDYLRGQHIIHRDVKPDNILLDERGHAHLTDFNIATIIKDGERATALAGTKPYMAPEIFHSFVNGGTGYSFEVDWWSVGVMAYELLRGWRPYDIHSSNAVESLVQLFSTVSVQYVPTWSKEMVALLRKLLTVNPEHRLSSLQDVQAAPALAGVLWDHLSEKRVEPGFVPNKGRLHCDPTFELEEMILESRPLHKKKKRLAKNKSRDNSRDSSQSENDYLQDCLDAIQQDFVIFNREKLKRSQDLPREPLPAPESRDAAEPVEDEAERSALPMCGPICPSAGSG

WNK1 = WNK1 (Homo sapiens, UniProt Q9H4A3)
CAMKK2 (CaMKK beta) = CAMKK2 (CaMKK beta) (Homo sapiens, UniProt Q96RR4)
CAMKK2 (CaMKK beta), sequence (Q96RR4 whole entry): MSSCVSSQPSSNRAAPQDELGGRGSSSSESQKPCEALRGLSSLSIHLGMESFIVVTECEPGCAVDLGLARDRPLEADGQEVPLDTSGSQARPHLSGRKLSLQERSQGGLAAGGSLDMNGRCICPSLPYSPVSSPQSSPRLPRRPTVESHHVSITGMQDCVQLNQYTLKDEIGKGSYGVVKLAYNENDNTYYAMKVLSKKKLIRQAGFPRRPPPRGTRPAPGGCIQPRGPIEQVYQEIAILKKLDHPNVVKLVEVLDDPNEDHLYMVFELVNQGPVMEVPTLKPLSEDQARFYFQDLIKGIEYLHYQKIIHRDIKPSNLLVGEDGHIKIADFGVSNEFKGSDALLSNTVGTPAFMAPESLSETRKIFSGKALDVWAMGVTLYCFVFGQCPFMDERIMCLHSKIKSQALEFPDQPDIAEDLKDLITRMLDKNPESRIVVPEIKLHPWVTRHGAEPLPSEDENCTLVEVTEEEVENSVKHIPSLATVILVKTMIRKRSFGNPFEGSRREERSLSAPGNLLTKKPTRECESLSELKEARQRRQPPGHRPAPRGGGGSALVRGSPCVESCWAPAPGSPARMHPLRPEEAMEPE

O=C(CSc1nc2nccnc2c(=O)n1CCc1ccccc1)Nc1nccs1 [compound 1, PITCOIN1]
inhibition at 1 µM (KIT V559D T670I): -4.48%
inhibition at 3 µM (KIT V559D T670I): 0.47%
inhibition at 10 µM (KIT V559D T670I): 6.38%
inhibition at 1 µM (ADCK3): -3.76%
inhibition at 3 µM (ADCK3): 8.79%
inhibition at 10 µM (ADCK3): 13.7%
inhibition at 1 µM (MKNK2 (MNK2)): -2.8%
inhibition at 3 µM (MKNK2 (MNK2)): -3.55%
inhibition at 10 µM (MKNK2 (MNK2)): -10.1%
inhibition at 1 µM (TGFBR1 (ALK5)): -5.43%
inhibition at 3 µM (TGFBR1 (ALK5)): 9.69%
inhibition at 10 µM (TGFBR1 (ALK5)): 5.12%
inhibition at 1 µM (RAF1 (cRAF) Y340D Y341D): -5.58%
inhibition at 3 µM (RAF1 (cRAF) Y340D Y341D): -2.49%
inhibition at 10 µM (RAF1 (cRAF) Y340D Y341D): -0.882%
inhibition at 1 µM (MAP2K1 (MEK1)): -0.281%
inhibition at 3 µM (MAP2K1 (MEK1)): 2.33%
inhibition at 10 µM (MAP2K1 (MEK1)): -0.179%
inhibition at 1 µM (CDK2/cyclin O): 17.6%
inhibition at 3 µM (CDK2/cyclin O): -4.45%
inhibition at 10 µM (CDK2/cyclin O): 7.96%
inhibition at 1 µM (TNIK): -4.88%
inhibition at 3 µM (TNIK): -3.23%
inhibition at 10 µM (TNIK): -2.09%
inhibition at 1 µM (CDK9/cyclin K): -2.66%
inhibition at 3 µM (CDK9/cyclin K): -5.46%
inhibition at 10 µM (CDK9/cyclin K): -1.18%
inhibition at 1 µM (BRAF): -3.95%
inhibition at 3 µM (BRAF): 1.69%
inhibition at 10 µM (BRAF): 0.837%
inhibition at 1 µM (CDK16 (PCTK1)/cyclin Y): -6.54%
inhibition at 3 µM (CDK16 (PCTK1)/cyclin Y): -14.5%
inhibition at 10 µM (CDK16 (PCTK1)/cyclin Y): -1.48%
inhibition at 1 µM (STK32C (YANK3)): -7%
inhibition at 3 µM (STK32C (YANK3)): -1.98%
inhibition at 10 µM (STK32C (YANK3)): -5.28%
inhibition at 1 µM (WNK1): -6.21%
inhibition at 3 µM (WNK1): -5.06%
inhibition at 10 µM (WNK1): -3.46%
inhibition at 1 µM (CAMKK2 (CaMKK beta)): -0.673%
inhibition at 3 µM (CAMKK2 (CaMKK beta)): -0.395%
inhibition at 10 µM (CAMKK2 (CaMKK beta)): 3.84%

CS(=O)(=O)Nc1cccc(-c2csc(NC(=O)CSc3nc4nccnc4c(=O)n3CCc3ccccc3)n2)c1 [compound 3, PITCOIN3]
inhibition at 1 µM (KIT V559D T670I): -12.1%
inhibition at 3 µM (KIT V559D T670I): 0.144%
inhibition at 10 µM (KIT V559D T670I): 1.37%
inhibition at 1 µM (ADCK3): 8.78%
inhibition at 3 µM (ADCK3): 18.3%
inhibition at 10 µM (ADCK3): 9.67%
inhibition at 1 µM (MKNK2 (MNK2)): -4.48%
inhibition at 3 µM (MKNK2 (MNK2)): 1.13%
inhibition at 10 µM (MKNK2 (MNK2)): -10.9%
inhibition at 1 µM (TGFBR1 (ALK5)): -4.81%
inhibition at 3 µM (TGFBR1 (ALK5)): 14.1%
inhibition at 10 µM (TGFBR1 (ALK5)): 1.48%
inhibition at 1 µM (RAF1 (cRAF) Y340D Y341D): -1.02%
inhibition at 3 µM (RAF1 (cRAF) Y340D Y341D): 3.96%
inhibition at 10 µM (RAF1 (cRAF) Y340D Y341D): 3.33%
inhibition at 1 µM (MAP2K1 (MEK1)): -0.643%
inhibition at 3 µM (MAP2K1 (MEK1)): 0.136%
inhibition at 10 µM (MAP2K1 (MEK1)): -2.2%
inhibition at 1 µM (CDK2/cyclin O): 18.1%
inhibition at 3 µM (CDK2/cyclin O): 11.6%
inhibition at 10 µM (CDK2/cyclin O): 2.75%
inhibition at 1 µM (TNIK): 4.57%
inhibition at 3 µM (TNIK): 2.17%
inhibition at 10 µM (TNIK): -4.46%
inhibition at 1 µM (CDK9/cyclin K): 0.179%
inhibition at 3 µM (CDK9/cyclin K): -3.08%
inhibition at 10 µM (CDK9/cyclin K): -7.54%
inhibition at 1 µM (BRAF): 6.15%
inhibition at 3 µM (BRAF): 7.18%
inhibition at 10 µM (BRAF): 9.11%
inhibition at 1 µM (CDK16 (PCTK1)/cyclin Y): 3.53%
inhibition at 3 µM (CDK16 (PCTK1)/cyclin Y): -5.28%
inhibition at 10 µM (CDK16 (PCTK1)/cyclin Y): -6.76%
inhibition at 1 µM (STK32C (YANK3)): 8.19%
inhibition at 3 µM (STK32C (YANK3)): -2.39%
inhibition at 10 µM (STK32C (YANK3)): -8.61%
inhibition at 1 µM (WNK1): -2.33%
inhibition at 3 µM (WNK1): -3.62%
inhibition at 10 µM (WNK1): 0.594%
inhibition at 1 µM (CAMKK2 (CaMKK beta)): 2.3%
inhibition at 3 µM (CAMKK2 (CaMKK beta)): 4.67%
inhibition at 10 µM (CAMKK2 (CaMKK beta)): 4.93%
